Patent US10323007B1, “N2N N4-disubstituted quinazoline-2,4-diamines and uses thereof” (University of South Florida, priority 2016, dated 2019)
Values after ≈ are worked out from the molar mass of the structure shown. Read-outs that look alike come from different tables or passages of the source.

Assays:
[1] = system: A. baumannii 1646 biofilm; assay: biofilm eradication determination assay, strain 1646; assay type: cell-based, Acinetobacter baumannii; details: for MBEC90: Table 6, representative data for isolate 1646; for reduction in biofilm viability: at 50 μM; for reduction in biofilm viability / MBEC90 1646: strain 1646; for MBEC90 1646: 90% biofilm eradication, Table 8 and text
Description: (§1) These assays were performed as described by us previously,^26,24 as follows. Each of the A. baumannii strains were grown overnight in Mueller Hinton Broth (MHB). The next day these were used to seed fresh MHB to an OD600 of 0.5, with 150 μL then added to the wells of a 96 well plate and grown for 24 hours at 37° C. After 24 hours, the planktonic bacteria were carefully removed and fresh MHB was added with increasing concentrations of lead quinazolines. After incubation at 37° C. for 24 hours, planktonic cells were removed and biofilms were washed three times with phosphate buffered saline (PBS). Biofilms were then resuspended in PBS and plated for cell viability on tryptic soy agar. Biofilm recovery was assessed compared to no drug controls, and determined as percent eradication. This was used to determine MBEC90 values (Minimal Biofilm Eradication Concentration), where the viability of cells within the biofilm was reduced by 90%.

[2] = system: A. baumannii 1650 biofilm; assay: biofilm eradication determination assay, strain 1650; assay type: cell-based, Acinetobacter baumannii; details: 90% biofilm eradication, Table 8
Description: as §1

A. baumannii 1646 [3] = assay: MIC assay, strain 1646; assay type: cell-based, Acinetobacter baumannii; details: Acinetobacter baumannii
Description: (§2) MIC and MBC assays were performed in this study as documented by us previously.^17,23,24,25 The A. baumannii strains used are detailed in Table 7.

A. baumannii 1652 [4] = assay: minimal bactericidal concentration (MBC) assay, strain 1652; assay type: cell-based; details: Acinetobacter baumannii, Table 8, read-out: MBC90 1652
Description: (§3) Lead quinazolines 4, 5, 26, 29, 27, and 30 were selected to be further evaluated for antimicrobial effects. The first assay utilized was a minimal bactericidal concentration (MBC) assay, to assess whether leads compounds were bacteriostatic or bactericidal. The six lead agents were screened to identify their MBC90 towards each of the six A. baumannii isolates used in the SAR studies (Table 8), however for simplicity only the representative data for isolate 1646 is detailed below (Table 6). […] Further to this, we were able to obtain complete eradication of bacterial growth for these two compounds at 1 μM for 24 and 5 μM for 25.
as §2

A. baumannii 1651 [5] = assay: minimal bactericidal concentration (MBC) assay, strain 1651; assay type: cell-based; details: Acinetobacter baumannii, Table 8, read-out: MBC90 1651
Description: as §3, §2

A. baumannii = assay: MIC assay, A. baumannii isolates (strain not given); assay type: cell-based, Acinetobacter baumannii; details: Acinetobacter baumannii; most isolates besides the 1652 strain; read-out: MIC against most isolates
Description: as §2

A. baumannii 1649 [6] = assay: minimal bactericidal concentration (MBC) assay, strain 1649; assay type: cell-based; details: Acinetobacter baumannii, Table 8, read-out: MBC90 1649
Description: as §3, §2

A. baumannii 1649 [7] = assay: MIC assay, strain 1649; assay type: cell-based, Acinetobacter baumannii; details: Acinetobacter baumannii, strain 1649
Description: as §2

A. baumannii 1403 [8] = assay: MIC assay, strain 1403; assay type: cell-based, Acinetobacter baumannii; details: Acinetobacter baumannii, strain 1403
Description: as §2

A. baumannii 1650 [9] = assay: MIC assay, strain 1650; assay type: cell-based, Acinetobacter baumannii; details: Acinetobacter baumannii, strain 1650
Description: as §2

[10] = system: A. baumannii 1649 biofilm; assay: biofilm eradication determination assay, strain 1649; assay type: cell-based, Acinetobacter baumannii; details: 90% biofilm eradication, Table 8
Description: as §1

[11] = system: A. baumannii 1403 biofilm; assay: biofilm eradication determination assay, strain 1403; assay type: cell-based, Acinetobacter baumannii; details: 90% biofilm eradication, Table 8
Description: as §1

A. baumannii 1403 [12] = assay: minimal bactericidal concentration (MBC) assay, strain 1403; assay type: cell-based; details: Acinetobacter baumannii, Table 8, read-out: MBC90 1403
Description: as §3, §2

[13] = system: A. baumannii 1652 biofilm; assay: biofilm eradication determination assay, strain 1652; assay type: cell-based, Acinetobacter baumannii; details: 90% biofilm eradication, Table 8
Description: as §1

[14] = system: A. baumannii 1651 biofilm; assay: biofilm eradication determination assay, strain 1651; assay type: cell-based, Acinetobacter baumannii; details: 90% biofilm eradication, Table 8
Description: as §1

A. baumannii 1651 [15] = assay: MIC assay, strain 1651; assay type: cell-based, Acinetobacter baumannii; details: Acinetobacter baumannii, strain 1651
Description: as §2

A. baumannii 1650 [16] = assay: minimal bactericidal concentration (MBC) assay, strain 1650; assay type: cell-based; details: Acinetobacter baumannii, Table 8, read-out: MBC90 1650
Description: as §3, §2

A. baumannii 1646 [17] = assay: minimal bactericidal concentration (MBC) assay, strain 1646; assay type: cell-based, Acinetobacter baumannii
Description: as §3, §2

A. baumannii 1652 [18] = assay: MIC assay, strain 1652; assay type: cell-based, Acinetobacter baumannii; details: Acinetobacter baumannii, strain 1652
Description: as §2

human HepG2 cells = assay type: cell-based
Description: Cytotoxicity assays were performed using human HepG2 cells (human liver epithelial with hepatocellular carcinoma), as described by us previously.^17,24 Cells were cultured in Dulbecco's modified eagle medium (DMEM), supplemented with 10% fetal bovine serum and 1% penicillin-streptomycin for 3 days at 37° C. and 5% CO2. Cells were then diluted to 1×10^5 ml^−1 using fresh DMEM and added to 96 well tissue culture plates at a volume of 100 μL. Plates were incubated for 24 hours at 37° C. and 5% CO2, allowing the cells to adhere to the plastic. […] Plates were then incubated for 48 hours at 37° C. and 5% CO2. After 48 hours the DMEM was removed and 100 μL of new media was added containing MTT (3-(4, 5-dimethylthiazol-2-yl)-2, 5-diphenyltetrazolium bromide), followed by incubation for four hours at 37° C. and 5% CO2. […] Lead compounds were solvated in 100% DMSO for these studies, which served as the negative control. LD50 values were determined for each compound by comparison to vehicle only controls.

A. baumannii strain 1403 = assay type: cell-based, Acinetobacter baumannii; details: serial passage, 8 days, start 0.5× MIC
Description: An important attribute of novel antibiotics is the ability to fend off the development of resistance towards their effects. To assess this capacity, A. baumannii strains were incubated overnight with 0.5× MIC of each of the frontrunners. The next day cells were washed and used to inoculate fresh media that contained a two-fold increase in drug. This was repeated for a total of 8 days, alongside sulfamethoxazole (SMX) and trimethoprim (TMP) controls, both of which target the same pathway as our lead agents (FIG. 2).
In order to test potential resistance towards the quinazolines, a serial passage assay was performed alongside control compounds (Sulfamethoxazole and Trimethoprim), as described by us previously.^24 A. baumannii strain 1403 was grown overnight in LB media at 37° C. The next day cultures were diluted 1:100 in fresh media and seeded into a 96-well plate. Lead quinazolines or control agents were added to respective wells at half MIC concentrations. […] These were then grown overnight, and the procedure repeated for a total of eight days.

[19] = Table 6, representative data for isolate 1646, read-out: MIC
[20] = strain 1646, Tables 1, 3, 4, 5 and footnotes, read-out: 1646 MIC
[21] = strain 1646, lead quinazolines, Table 8, read-out: MIC 1646
[22] = Tables 1, 3, 4, 5 and footnotes, read-out: 1649 MIC
[23] = lead quinazolines, Table 8, read-out: MIC 1649
[24] = Tables 1, 3, 4, 5 and footnotes, read-out: 1403 MIC
[25] = lead quinazolines, Table 8, read-out: MIC 1403
[26] = Tables 1, 3, 4, 5 and footnotes, read-out: 1650 MIC
[27] = lead quinazolines, Table 8, read-out: MIC 1650
[28] = Tables 1, 3, 4, 5 and footnotes, read-out: 1651 MIC
[29] = lead quinazolines, Table 8, read-out: MIC 1651
[30] = Acinetobacter baumannii, 1646, strain 1646, Table 8 and text, read-out: MBC90 1646
[31] = Acinetobacter baumannii, Table 6, representative data for isolate 1646, read-out: MBC90
[32] = Tables 1, 3, 4, 5 and footnotes, read-out: 1652 MIC
[33] = lead quinazolines, Table 8, read-out: MIC 1652
[34] = at 25 μM (highest concentration tested)

| Compound | MBEC90 [1] [µM] | reduction in biofilm viability [1] [log] | MBEC90 1646 [1] [µM] | MBEC90 1650 [2] [µM] | MIC (A. baumannii 1646 [3]; [19]) [µM] | MIC (A. baumannii 1646 [3]; [20]) [µM] | MIC (A. baumannii 1646 [3]; [21]) [µM] | MBC (A. baumannii 1652 [4]) [µM] | MBC (A. baumannii 1651 [5]) [µM] | MIC (A. baumannii) [µM] | MBC (A. baumannii 1649 [6]) [µM] | MIC (A. baumannii 1649 [7]; [22]) [µM] | MIC (A. baumannii 1649 [7]; [23]) [µM] | MIC (A. baumannii 1403 [8]; [24]) [µM] | MIC (A. baumannii 1403 [8]; [25]) [µM] | MIC (A. baumannii 1650 [9]; [26]) [µM] | MIC (A. baumannii 1650 [9]; [27]) [µM] | MBEC90 1649 [10] [µM] | MIC (A. baumannii 1651 [15]; [28]) [µM] | MIC (A. baumannii 1652 [18]; [32]) [µM] | other results |
| --- | --- | --- | --- | --- | --- | --- | --- | --- | --- | --- | --- | --- | --- | --- | --- | --- | --- | --- | --- | --- | --- |
| CNc1nc(NCc2ccccc2)nc2ccc(C3=CCCCC3)cc12 [Compound 29, N^2-Benzyl-6-(cyclohex-1-en-1-yl)-N^4-methylquinazoline-2,4-diamine] | 8.9 | 1.6 | 8.9 | 48 | 2 (≈ 0.689 µg/mL) | 2 (≈ 0.689 µg/mL) | 2 (≈ 0.689 µg/mL) | 11 (≈ 3.79 µg/mL) | 4 (≈ 1.38 µg/mL) | 2 (≈ 0.689 µg/mL) | 9.1 (≈ 3.13 µg/mL) | 10 (≈ 3.44 µg/mL) | 8 (≈ 2.76 µg/mL) | 2 (≈ 0.689 µg/mL) | 3 (≈ 1.03 µg/mL) | 10 (≈ 3.44 µg/mL) | 10 (≈ 3.44 µg/mL) | 58 | 2 (≈ 0.689 µg/mL) | 30 (≈ 10.3 µg/mL) | MBEC90 1403 [11]: 20 µM; MBC (A. baumannii 1403 [12]): 22 µM (≈ 7.58 µg/mL); MBEC90 1652 [13]: 77 µM; MBEC90 1651 [14]: 21 µM; MIC (A. baumannii 1651 [15]; [29]): 2 µM (≈ 0.689 µg/mL); MBC (A. baumannii 1650 [16]): 16 µM (≈ 5.51 µg/mL); MBC (A. baumannii 1646 [17]; [30]): 1.5 µM (≈ 0.517 µg/mL); MBC (A. baumannii 1646 [17]; [31]): 1.5 µM (≈ 0.517 µg/mL); MIC (A. baumannii 1652 [18]; [33]): 30 µM (≈ 10.3 µg/mL); HepG2 cell viability (human HepG2 cells; at 12 μM): 42%; HepG2 cell viability (human HepG2 cells; [34]): 32%; LD50(HepG2) (human HepG2 cells; human, 48 h): 23 µM |
| CNc1nc(NCc2ccccc2)nc2ccc(C3CCCCC3)cc12 [Compound 30, N^2-Benzyl-6-cyclohexyl-N^4-methylquinazoline-2,4-diamine] | 41.2 | 4.2 | 41 | 46 | 2 (≈ 0.693 µg/mL) | 2 (≈ 0.693 µg/mL) | 2 (≈ 0.693 µg/mL) | 17 (≈ 5.89 µg/mL) | 28 (≈ 9.7 µg/mL) | 2 (≈ 0.693 µg/mL) | 33 (≈ 11.4 µg/mL) | 2 (≈ 0.693 µg/mL) | 15 (≈ 5.2 µg/mL) | 2 (≈ 0.693 µg/mL) | 20 (≈ 6.93 µg/mL) | 2 (≈ 0.693 µg/mL) | 20 (≈ 6.93 µg/mL) | 68 | 2 (≈ 0.693 µg/mL) | 10 (≈ 3.46 µg/mL) | MBEC90 1403 [11]: 21 µM; MBC (A. baumannii 1403 [12]): 32 µM (≈ 11.1 µg/mL); MBEC90 1652 [13]: >100 µM; MBEC90 1651 [14]: 33 µM; MIC (A. baumannii 1651 [15]; [29]): 20 µM (≈ 6.93 µg/mL); MBC (A. baumannii 1650 [16]): 22 µM (≈ 7.62 µg/mL); MBC (A. baumannii 1646 [17]; [30]): 1.1 µM (≈ 0.381 µg/mL); MBC (A. baumannii 1646 [17]; [31]): 1.1 µM (≈ 0.381 µg/mL); MIC (A. baumannii 1652 [18]; [33]): 20 µM (≈ 6.93 µg/mL); HepG2 cell viability (human HepG2 cells; [34]): 39%; LD50(HepG2) (human HepG2 cells; human, 48 h): 11 µM |
| Cc1cc(NS(=O)(=O)c2ccc(N)cc2)no1 [SMX, Sulfamethoxazole, reference compound] |  |  |  |  |  | 118 (≈ 29.9 µg/mL) |  |  |  |  |  | 118 (≈ 29.9 µg/mL) |  | 138 (≈ 35 µg/mL) |  | 118 (≈ 29.9 µg/mL) |  |  | 118 (≈ 29.9 µg/mL) | 118 (≈ 29.9 µg/mL) | increase in MIC over the 8-day test period (A. baumannii strain 1403): 128 fold; HepG2 cell viability (human HepG2 cells; human, 48 h, 25 μM): 46% |
| COc1cc(Cc2cnc(N)nc2N)cc(OC)c1OC [TMP, trimethoprim, reference compound] |  |  |  |  |  | 34 (≈ 9.87 µg/mL) |  |  |  |  |  | 517 (≈ 150 µg/mL) |  | 103 (≈ 29.9 µg/mL) |  | 120 (≈ 34.8 µg/mL) |  |  | 103 (≈ 29.9 µg/mL) | 103 (≈ 29.9 µg/mL) | increase in MIC over the 8-day test period (A. baumannii strain 1403): 64 fold; HepG2 cell viability (human HepG2 cells; human, 48 h, 25 μM): 45% |
